Data from ChEMBL document CHEMBL1138792, “Successful virtual screening for a submicromolar antagonist of the neurokinin-1 receptor based on a ligand-supported homology model” (J Med Chem, 2004).

Target: Substance-P receptor (Homo sapiens, UniProt P25103)
Assay: Inhibition of substance P binding to Tachykinin receptor 1 in Chinese hamster ovary cells
Format: cell-based
Settings: not given

Chain of Substance-P receptor (P25103 whole entry): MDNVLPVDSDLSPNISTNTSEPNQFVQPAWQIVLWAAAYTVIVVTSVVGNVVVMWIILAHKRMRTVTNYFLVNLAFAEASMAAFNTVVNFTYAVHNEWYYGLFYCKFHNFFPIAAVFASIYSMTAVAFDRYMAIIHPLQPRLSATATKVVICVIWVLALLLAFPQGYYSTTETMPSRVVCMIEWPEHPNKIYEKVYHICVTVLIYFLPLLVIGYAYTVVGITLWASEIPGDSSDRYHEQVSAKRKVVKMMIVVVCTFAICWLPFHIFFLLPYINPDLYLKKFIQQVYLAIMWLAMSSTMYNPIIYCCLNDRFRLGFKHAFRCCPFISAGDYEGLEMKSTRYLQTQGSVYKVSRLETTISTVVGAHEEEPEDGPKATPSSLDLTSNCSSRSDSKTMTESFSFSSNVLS

SMILES | IC50
NC(COCc1ccccc1)C(c1ccccc1)c1ccccc1 (centres undefined) | 400 nM
Cc1cc(C)cc(COC(=O)[C@H](N)Cc2c[nH]c3ccccc23)c1 | 1530 nM
N[C@H](Cc1c[nH]c2ccccc12)C(=O)OCc1ccccc1 | > 10000 nM
NC(=O)CNC(COCc1cc(C(F)(F)F)cc(C(F)(F)F)c1)C(c1ccccc1)c1ccccc1 (stereo in doubt; 5) | 0.53 nM
COc1ccc(-n2cnnn2)cc1CN[C@H]1CCCN[C@H]1c1ccccc1 | 0.06 nM
FC(F)(F)c1cc(COCC2(c3ccccc3)CCNCC2)cc(C(F)(F)F)c1 | 1 nM
O=C(CSc1nnc(-c2ccncc2)n1-c1ccccc1)Nc1cccc(Cl)c1 | 250 nM
CC(=O)NC(Cc1c[nH]c2ccccc12)C(=O)OCc1cc(C)cc(C)c1 (centres undefined) | 67 nM

Same assay, conditions: ovary

SMILES | IC50
NC(=O)CNC(COCc1cc(C(F)(F)F)cc(C(F)(F)F)c1)C(c1ccccc1)c1ccccc1 (stereo in doubt; 16) | 0.53 nM
